Assays:
steroid sulfatase = biological target: T1, steroid sulfatase (Homo sapiens, UniProt P08842); assay: Steroid sulfatase (STS) inhibition assay in JEG-3 cells ([6,7-3H] estrone sulfate); type: cell-based; details: 1 hour at 37° C., duplicate
T1 construct: JEG-3 which constitutively expresses high amount of aromatase and steroid sulfatase; endogenous in cells; host or cells: JEG-3
T1 sequence (P08842 22-583): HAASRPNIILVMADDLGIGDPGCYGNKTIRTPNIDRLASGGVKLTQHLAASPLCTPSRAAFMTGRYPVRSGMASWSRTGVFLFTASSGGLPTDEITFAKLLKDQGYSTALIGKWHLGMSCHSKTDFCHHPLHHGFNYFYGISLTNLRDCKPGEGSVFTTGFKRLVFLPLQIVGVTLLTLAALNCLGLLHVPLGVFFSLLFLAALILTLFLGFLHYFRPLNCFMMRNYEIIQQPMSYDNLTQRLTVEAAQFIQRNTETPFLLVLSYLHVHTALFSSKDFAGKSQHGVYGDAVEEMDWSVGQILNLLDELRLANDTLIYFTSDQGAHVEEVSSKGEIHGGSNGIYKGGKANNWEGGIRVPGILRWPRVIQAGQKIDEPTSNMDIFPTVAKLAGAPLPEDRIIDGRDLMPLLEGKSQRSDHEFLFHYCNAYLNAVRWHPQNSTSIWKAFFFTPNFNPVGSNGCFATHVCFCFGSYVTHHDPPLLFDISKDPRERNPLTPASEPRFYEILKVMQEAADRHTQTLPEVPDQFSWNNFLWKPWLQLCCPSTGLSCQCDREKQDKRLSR
Description: (§1) Aromatase and steroid sulfatase enzymes inhibitions were evaluated in the human chorionic carcinoma cell line JEG-3 which constitutively expresses high amount of aromatase and steroid sulfatase.
For STS assay, JEG-3 cells were seeded into 24-well culture plates at 150,000 cells/ml/well and maintained in MEM containing supplements overnight. When reaching 80% confluent, the cells were washed once with serum-free MEM, loaded with 1 ml of substrate mix containing [6,7-3H] Estrone sulfate (E1S, 0.6 μCi/ml) and [4-14C] Estrone (E1, 4 nCi/ml) in the presence of compounds in a concentration series, and incubated for 1 hour at 37° C. The product [3H]E1 was separated from E1S by toluene partition using [4-14C]E1 to monitor extraction procedural losses, and the toluene fraction radioactivity was measured by a MicroBeta scintillation counter.
(§2) Experiments are performed in duplicate. The inhibitory concentration of 50% of the enzymatic activity is calculated.

aromatase = biological target: T2, aromatase (Homo sapiens, UniProt P11511); assay: Aromatase inhibition assay in JEG-3 cells ([1β-3H] androstenedione, tritiated water release); type: cell-based; details: 1.25 hour incubation, duplicate
T2 construct: JEG-3 which constitutively expresses high amount of aromatase and steroid sulfatase; endogenous in cells; host or cells: JEG-3
T2 sequence (P11511 1-503): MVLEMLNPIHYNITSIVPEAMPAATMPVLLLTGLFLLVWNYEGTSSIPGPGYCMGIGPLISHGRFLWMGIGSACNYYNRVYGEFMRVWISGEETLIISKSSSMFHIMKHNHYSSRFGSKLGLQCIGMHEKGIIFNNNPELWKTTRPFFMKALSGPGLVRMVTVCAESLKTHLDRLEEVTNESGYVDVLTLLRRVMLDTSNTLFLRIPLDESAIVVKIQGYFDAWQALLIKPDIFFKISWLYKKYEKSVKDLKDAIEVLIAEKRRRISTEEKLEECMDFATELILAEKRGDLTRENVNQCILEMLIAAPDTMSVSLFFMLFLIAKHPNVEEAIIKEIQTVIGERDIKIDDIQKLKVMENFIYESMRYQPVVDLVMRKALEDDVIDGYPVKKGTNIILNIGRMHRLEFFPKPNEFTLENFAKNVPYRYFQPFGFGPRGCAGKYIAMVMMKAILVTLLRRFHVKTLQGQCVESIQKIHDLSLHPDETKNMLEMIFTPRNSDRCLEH
Description: as §1
For aromatase inhibition assay, JEG-3 cells were seeded into 96-well plates at 35,000 cells/well and maintained in MEM containing supplements. When reaching 80% confluent, the cells were washed once with serum-free MEM, incubated with [1β-^3H] androstenedione (A4, 0.2 μCi/ml) for 1.25 hour in the presence of the test substances added in a concentration series. The product, tritiated water (^3H2O), was separated using 2.5% (w/v) dextran-coated charcoal at 4-8° C. for 2 hours. The supernatant radioactivity was measured by a MicroBeta scintillation counter.
as §2

| IC50 (steroid sulfatase) | IC50 (aromatase) | Structure (SMILES) |
| --- | --- | --- |
| 2 nM | 1.2 nM | N#Cc1ccc(Cn2cnc3ccccc32)cc1-c1ccc(OS(N)(=O)=O)cc1 [Example 1, 5′-((1H-Benzo[d]imidazol-1-yl)methyl)-2′-cyano-[1,1′-biphenyl]-4-yl sulfamate] |
| 6.8 nM | 2 nM | N#Cc1ccc(Nn2cnc3ccccc32)cc1-c1ccc(OS(N)(=O)=O)cc1 [Example 2, 5′-(1H-Benzo[d]imidazol-1-ylamino)-2′-cyano-[1,1′-biphenyl]-4-yl sulfamate] |
| 18.9 nM | > 60 nM | Cc1nc2ccccc2n1Cc1ccc(C#N)c(-c2ccc(OS(N)(=O)=O)cc2)c1 [Example 3, 2′-Cyano-5′-((2-methyl-1H-benzo[d]imidazol-1-yl)methyl)biphenyl-4-yl sulfamate] |
| 12.1 nM | 4.8 nM | N#Cc1ccc(Cn2nnc3ccccc32)cc1-c1ccc(OS(N)(=O)=O)cc1 [Example 4, 5′-((1H-Benzo[d][1,2,3]triazol-1-yl)methyl)-2′-cyano-[1,1′-biphenyl]-4-yl sulfamate] |
| 25.6 nM | 3.2 nM | CN(c1ccc(C#N)c(-c2ccc(OS(N)(=O)=O)cc2)c1)n1cnc2ccccc21 [Example 5, 5′-((1H-Benzo[d]imidazol-1-yl)(methyl)amino)-2′-cyano-[1,1′-biphenyl]-4-yl sulfamate] |
| > 60 nM | 53.2 nM | N#Cc1ccc(N(CC2CC2)n2cnc3ccccc32)cc1-c1ccc(OS(N)(=O)=O)cc1 [Example 6, 5′-((1H-Benzo[d]imidazol-1-yl)(cyclopropylmethyl)amino)-2′-cyano-[1,1′-biphenyl]-4-yl sulfamate] |
| 16.4 nM | > 60 nM | N#Cc1ccc(Cn2c(C(F)(F)F)nc3ccccc32)cc1-c1ccc(OS(N)(=O)=O)cc1 [Example 7, 2′-Cyano-5′-((2-(trifluoromethyl)-1H-benzo[d]imidazol-1-yl)methyl)biphenyl-4-yl sulfamate] |
| 23.6 nM | 6.3 nM | N#Cc1ccc(Cn2nnc3cccnc32)cc1-c1ccc(OS(N)(=O)=O)cc1 [Example 8, 5′-((3H-[1,2,3]Triazolo[4,5-b]pyridin-3-yl)methyl)-2′-cyano-[1,1′-biphenyl]-4-yl sulfamate] |
| 9.1 nM | 3.2 nM | N#Cc1ccc(Cn2cnc3ccccc32)nc1-c1ccc(OS(N)(=O)=O)cc1 [Example 10, 4-(6-((1H-Benzo[d]imidazol-1-yl)methyl)-3-cyanopyridin-2-yl)phenyl sulfamate] |
| 18.4 nM | 1.2 nM | N#Cc1ccc(Nn2nnc3ccccc32)cc1-c1ccc(OS(N)(=O)=O)cc1 [Example 11, 5′-(1H-Benzo[d][1,2,3]triazol-1-ylamino)-2′-cyanobiphenyl-4-yl sulfamate] |
| 7 nM | 0.5 nM | N#Cc1ccc(Cn2cnc3cccnc32)cc1-c1ccc(OS(N)(=O)=O)cc1 [Example 12, 5′-((3H-Imidazo[4,5-b]pyridin-3-yl)methyl)-2′-cyano-[1,1′-biphenyl]-4-yl sulfamate] |
| > 60 nM | 13.1 nM | CN(c1ccc(C#N)c(-c2ccc(OS(N)(=O)=O)cc2)c1)n1nnc2ccccc21 [Example 13, 5′-((1H-Benzo[d][1,2,3]triazol-1-yl)(methyl)amino)-2′-cyanobiphenyl-4-yl sulfamate] |
| 21.7 nM | 7 nM | N#Cc1ccc(Cn2cnc3cccnc32)nc1-c1ccc(OS(N)(=O)=O)cc1 [Example 14, 4-(6-((3H-Imidazo[4,5-b]pyridin-3-yl)methyl)-3-cyanopyridin-2-yl)phenyl sulfamate] |
| 14.6 nM | 17.5 nM | N#Cc1cnc(Nn2cnc3ccccc32)nc1-c1ccc(OS(N)(=O)=O)cc1 [Example 15, 4-(2-(1H-Benzo[d]imidazol-1-ylamino)-5-cyanopyrimidin-4-yl)phenyl sulfamate] |
| 22 nM | 6.4 nM | CN(c1ncc(C#N)c(-c2ccc(OS(N)(=O)=O)cc2)n1)n1cnc2ccccc21 [Example 16, 4-(2-((1H-Benzo[d]imidazol-1-yl)(methyl)amino)-5-cyanopyrimidin-4-yl)phenyl sulfamate] |

Reference: patent US9682941B2, “Substituted biphenyl analogues as dual inhibitors of aromatase and sulfatase” (ESTRYX PHARMA LIMITED, priority 2013, dated 2017)
